In patent US20250236613A1, “SARM1 MODULATORS, PREPARATIONS, AND USES THEREOF” (SIRONAX LTD., priority 2021, published 2025):
pIC50: −log10 of the molar value.

These compounds were tested against SARM1 (50-724) (Homo sapiens (Human), UniProt Q6SZW1) (assay: SARM1 (50-724) enzymatic assay). Conditions: SARM1 inhibitory activity; 2 nM SARM1 (50-724), 200 μM NMN activator, 100 μM NAD+ substrate, 1 h, LC-MS/MS.
Chain of SARM1 (50-724) (Q6SZW1 50-724): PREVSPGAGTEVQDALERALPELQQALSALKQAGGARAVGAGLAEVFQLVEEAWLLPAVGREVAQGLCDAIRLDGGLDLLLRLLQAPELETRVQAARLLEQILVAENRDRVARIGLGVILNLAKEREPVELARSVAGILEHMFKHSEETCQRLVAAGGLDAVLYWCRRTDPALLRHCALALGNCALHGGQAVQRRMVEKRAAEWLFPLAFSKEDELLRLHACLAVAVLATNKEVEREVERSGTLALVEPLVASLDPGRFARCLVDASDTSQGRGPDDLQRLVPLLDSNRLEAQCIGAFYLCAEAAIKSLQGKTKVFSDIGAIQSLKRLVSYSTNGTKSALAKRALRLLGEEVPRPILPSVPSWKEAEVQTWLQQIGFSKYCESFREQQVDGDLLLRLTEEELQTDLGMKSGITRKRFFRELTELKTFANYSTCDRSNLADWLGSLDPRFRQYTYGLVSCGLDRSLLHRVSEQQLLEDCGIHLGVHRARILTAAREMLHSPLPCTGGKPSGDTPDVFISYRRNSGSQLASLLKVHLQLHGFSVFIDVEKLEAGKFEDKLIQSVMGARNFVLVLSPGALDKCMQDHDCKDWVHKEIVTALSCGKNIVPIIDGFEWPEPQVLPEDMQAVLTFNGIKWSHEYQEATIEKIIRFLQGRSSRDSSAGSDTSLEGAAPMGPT
Assay type: biochemical
Method: The enzymatic assay was performed in a 384-well plate using Dulbecco's PBS buffer as the reaction buffer. Purified SARM1 (50-724) with a final concentration of 2 nM was pre-incubated with the test compound at 1% DMSO final assay concentration for 15 min at room temperature. The reaction was initiated by adding the mixture of 200 μM NMN as activator and 100 μM NAD^+ as substrate. After 1 h of incubation at room temperature, the reaction was terminated with 10 times volume of 70% acetonitrile, then centrifuged at 3800 rpm for 10 min. The samples were analyzed using LC-MS/MS after diluted to the proper concentration by 10 mM ammonium acetate (pH 9.75).
Cc1ccncc1-c1ccc(O)cc1F [Compound 12, 3-fluoro-4-(4-methylpyridin-3-yl)phenol] was tested, and the pIC50 was less than 4.52. For Cc1ccncc1-c1ccc2[nH]c(=O)[nH]c(=O)c2c1 [Compound 120, 6-(4-methylpyridin-3-yl)quinazoline-2,4(1H,3H)-dione], the pIC50 was greater than 5.30. Compound Cc1ccncc1-c1ccc2[nH]c(=S)oc2c1 [Compound 75, 6-(4-methylpyridin-3-yl)benzo[d]oxazole-2(3H)-thione] has a pIC50 greater than 5.30. Cc1ccncc1-c1cc(O)cc(C#N)c1 [Compound 5, 3-hydroxy-5-(4-methylpyridin-3-yl)benzonitrile] showed a pIC50 greater than 5.30. Work on Cc1ccncc1-c1ccc(NC(=N)N)cc1 [Compound 69, 1-(4-(4-methylpyridin-3-yl)phenyl)guanidine] yielded a pIC50 of 4.52 to 4.82. Compound Cc1ccncc1-c1ccc2c(c1)N(C)S(=O)(=O)N2 [Compound 70, 1-methyl-6-(4-methylpyridin-3-yl)-1,3-dihydrobenzo[c][1,2,5]thiadiazole 2,2-dioxide] has a pIC50 of 4.52 to 4.82. Cc1c[nH]c(=O)cc1-c1ccc2[nH]c(=O)oc2c1 [Compound 82, 6-(5-methyl-2-oxo-1,2-dihydropyridin-4-yl)benzo[d]oxazol-2(3H)-one] gave a pIC50 of 4.52 to 4.82. With Cc1ccncc1-c1ccc2[nH]c(=O)sc2c1 [Compound 86, 6-(4-methylpyridin-3-yl)benzo[d]thiazol-2(3H)-one] the pIC50 was greater than 5.30. Compound Cc1ccncc1-c1ccc2c(c1)CC(=O)N2 [Compound 41, 5-(4-methylpyridin-3-yl)indolin-2-one] has a pIC50 greater than 5.30. Work on Cc1ccncc1-c1ccc(O)c(O)c1 [Compound 47, 4-(4-methylpyridin-3-yl)benzene-1,2-diol] yielded a pIC50 greater than 5.30. With Cc1ccncc1-c1ccc2[nH]c(N)nc2c1 [Compound 64, 5-(4-methylpyridin-3-yl)-1H-benzo[d]imidazol-2-amine] the pIC50 was greater than 5.30. Work on Cc1ccncc1-c1ccc2[nH]ncc2c1 [Compound 24, 5-(4-methylpyridin-3-yl)-1H-indazole] yielded a pIC50 greater than 5.30. O=c1[nH]c2ccc(-c3cncc(Nc4cccc(O)c4)c3)cc2o1 [Compound 95, 6-(5-((3-hydroxyphenyl)amino)pyridin-3-yl)benzo[d]oxazol-2(3H)-one] showed a pIC50 greater than 5.30. Work on O=c1[nH]c2ccc(-c3cncc(Nc4cccnc4)c3)cc2o1 [Compound 105, 6-(5-(pyridin-3-ylamino)pyridin-3-yl)benzo[d]oxazol-2(3H)-one] yielded a pIC50 greater than 5.30. For Cc1ccncc1-c1ccc2c(c1)OCCC(=O)N2 [Compound 85, 8-(4-methylpyridin-3-yl)-2,3-dihydrobenzo[b][1,4]oxazepin-4(5H)-one], the pIC50 was 4.82 to 5.30. Cc1ccncc1-c1cc(F)c(O)c(Cl)c1 [Compound 61, 2-chloro-6-fluoro-4-(4-methylpyridin-3-yl)phenol] was tested, and the pIC50 was 4.82 to 5.30. Compound Cc1ccncc1-c1ccc2nc(N)ncc2c1 [Compound 71, 6-(4-methylpyridin-3-yl)quinazolin-2-amine] has a pIC50 of 4.52 to 4.82. Cc1ccncc1-c1cc[nH]c(=O)c1 [Compound 2, 4-methyl-[3,4′-bipyridin]-2′(1′H)-one] showed a pIC50 greater than 5.30. With CC(C)c1cccc(Nc2cncc(-c3ccc4[nH]c(=O)oc4c3)c2)c1 [Compound 103, 6-(5-((3-isopropylphenyl)amino)pyridin-3-yl)benzo[d]oxazol-2(3H)-one] the pIC50 was greater than 5.30. With Cn1cc(Nc2cncc(-c3ccc4[nH]c(=O)oc4c3)c2)cn1 [Compound 108, 6-(5-((1-methyl-1H-pyrazol-4-yl)amino)pyridin-3-yl)benzo[d]oxazol-2(3H)-one] the pIC50 was greater than 5.30. In the case of Cc1ccncc1-c1ccc2c(c1)NC(=O)C2 [Compound 55, 6-(4-methylpyridin-3-yl)indolin-2-one], the pIC50 was 4.52 to 4.82. With Cc1ccncc1-c1ccc2[nH]c(C#N)nc2c1 [Compound 89, 5-(4-methylpyridin-3-yl)-1H-benzo[d]imidazole-2-carbonitrile] the pIC50 was greater than 5.30. O=c1[nH]c2ccc(-c3cncc(Nc4ccccc4F)c3)cc2o1 [Compound 102, 6-(5-((2-fluorophenyl)amino)pyridin-3-yl)benzo[d]oxazol-2(3H)-one] gave a pIC50 greater than 5.30. Cc1ccncc1-c1ccc2c(c1)CCN2 [Compound 33, 5-(4-methylpyridin-3-yl)indoline] gave a pIC50 of 4.52 to 4.82. In the case of Cc1ccncc1-c1ccc2[nH]c(C#N)cc2c1 [Compound 88, 5-(4-methylpyridin-3-yl)-1H-indole-2-carbonitrile], the pIC50 was greater than 5.30. Cc1ccncc1-c1cccc(O)c1Cl [Compound 27, 2-chloro-3-(4methylpyridin-3-yl)phenol] showed a pIC50 of less than 4.52. Cc1cc(C)c(-c2ccc3[nH]c(=O)oc3c2)cn1 [Compound 67, 6-(4,6-dimethylpyridin-3-yl)benzo[d]oxazol-2(3H)-one] showed a pIC50 of 4.52 to 4.82. Cc1ccncc1-c1cc(O)cc(Cl)c1 [Compound 60, 3-chloro-5-(4-methylpyridin-3-yl)phenol] gave a pIC50 greater than 5.30. Work on Cc1ccncc1-c1ccc2[nH]cnc2c1 [Compound 25, 5-(4-methylpyridin-3-yl)-1H-benzo[d]imidazole] yielded a pIC50 greater than 5.30. Compound Cc1ccncc1-c1ccc2[nH]c(=O)n(C)c2c1 [Compound 57, 1-methyl-6-(4-methylpyridin-3-yl)-1,3-dihydro-2H-benzo[d]imidazol-2-one] has a pIC50 of 4.82 to 5.30. O=c1[nH]c2ccc(-c3cncc(Nc4ccc(Cl)cc4)c3)cc2o1 [Compound 104, 6-(5-((4-chlorophenyl)amino)pyridin-3-yl)benzo[d]oxazol-2(3H)-one] was tested, and the pIC50 was greater than 5.30. Work on Cc1ccncc1-c1ccc2[nH]ncc2c1F [Compound 74, 4-fluoro-5-(4-methylpyridin-3-yl)-1H-indazole] yielded a pIC50 of 4.52 to 4.82. In the case of O=c1[nH]c2ccc(-c3cncc(Nc4ccccn4)c3)cc2o1 [Compound 113, 6-(5-(pyridin-2-ylamino)pyridin-3-yl)benzo[d]oxazol-2(3H)-one], the pIC50 was greater than 5.30. Work on O=c1[nH]c2ccc(-c3cncc(Nc4ccncc4)c3)cc2o1 [Compound 111, 6-(5-(pyridin-4-ylamino)pyridin-3-yl)benzo[d]oxazol-2(3H)-one] yielded a pIC50 greater than 5.30. Cc1ccncc1-c1ccc2[nH]ncc2n1 [Compound 50, 5-(4-methylpyridin-3-yl)-1H-pyrazolo[4,3-b]pyridine] gave a pIC50 of 4.82 to 5.30. For Cc1ccncc1-c1cccc(O)c1 [Compound 4, 3-(4-methylpyridin-3-yl)phenol], the pIC50 was greater than 5.30. With Cc1ccncc1-c1ccc2c(c1)CNC(=N)N2 [Compound 79, 6-(4-methylpyridin-3-yl)-3,4-dihydroquinazolin-2(1H)-imine] the pIC50 was greater than 5.30. For Cc1ccncc1-c1ccc2[nH]ccc2c1 [Compound 21, 5-(4-methylpyridin-3-yl)-1H-indole], the pIC50 was greater than 5.30. In the case of Cc1ccnnc1-c1ccc2[nH]c(=O)oc2c1 [Compound 94, 6-(4-methylpyridazin-3-yl)benzo[d]oxazol-2(3H)-one], the pIC50 was greater than 5.30. Compound COc1ccncc1-c1ccc2[nH]c(=O)oc2c1 [Compound 90, 6-(4-methoxypyridin-3-yl)benzo[d]oxazol-2(3H)-one] has a pIC50 greater than 5.30. O=c1[nH]c2ccc(-c3cncc(Nc4nccs4)c3)cc2o1 [Compound 115, 6-(5-(thiazol-2-ylamino)pyridin-3-yl)benzo[d]oxazol-2(3H)-one] gave a pIC50 greater than 5.30. For Cc1ccncc1-c1ccc2c(c1)CNC(=O)N2 [Compound 46, 6-(4-methylpyridin-3-yl)-3,4-dihydroquinazolin-2(1H)-one], the pIC50 was less than 4.52. Compound Cc1ccncc1-c1ccc2c(c1)C(=O)C(=O)N2 [Compound 76, 5-(4-methylpyridin-3-yl)indoline-2,3-dione] has a pIC50 greater than 5.30. In the case of Cc1cc(Nc2cncc(-c3ccc4[nH]c(=O)oc4c3)c2)n(C)n1 [Compound 117, 6-(5-((1,3-dimethyl-1H-pyrazol-5-yl)amino)pyridin-3-yl)benzo[d]oxazol-2(3H)-one], the pIC50 was greater than 5.30. With Cc1ccncc1-c1ccc2c(c1)C(F)(F)C(=O)N2 [Compound 81, 3,3-difluoro-5-(4-methylpyridin-3-yl)indolin-2-one] the pIC50 was greater than 5.30. O=c1cc(-c2cccnc2)cc[nH]1 [Compound 1, [3,4′-bipyridin]-2′(1′H)-one] was tested, and the pIC50 was 4.82 to 5.30. Cc1ccncc1-c1ccc2[nH]nc(F)c2c1 [Compound 68, 3-fluoro-5-(4-methylpyridin-3-yl)-1H-indazole] gave a pIC50 greater than 5.30. Compound Nc1cncc(-c2ccc3[nH]c(=O)oc3c2)c1 [Compound 77, 6-(5-aminopyridin-3-yl)benzo[d]oxazol-2(3H)-one] has a pIC50 of 4.82 to 5.30. Cc1ccncc1-c1cnc2[nH]ncc2c1 [Compound 48, 5-(4-methylpyridin-3-yl)-1H-pyrazolo[3,4-b]pyridine] was tested, and the pIC50 was 4.52 to 4.82. Work on COc1cccc(Nc2cncc(-c3ccc4[nH]c(=O)oc4c3)c2)c1 [Compound 97, 6-(5-((3-methoxyphenyl)amino)pyridin-3-yl)benzo[d]oxazol-2(3H)-one] yielded a pIC50 greater than 5.30. In the case of Cc1ccncc1-c1ccc2[nH]c(=O)oc2c1F [Compound 91, 7-fluoro-6-(4-methylpyridin-3-yl)benzo[d]oxazol-2(3H)-one], the pIC50 was 4.52 to 4.82. Cc1ccncc1-c1ccc2c(c1)COCC(=O)N2 [Compound 80, 7-(4-methylpyridin-3-yl)-1,5-dihydrobenzo[e][1,4]oxazepin-2(3H)-one] gave a pIC50 greater than 5.30. Cc1ccncc1-c1ccc2[nH]c(=O)[nH]c2c1 [Compound 44, 5-(4-methylpyridin-3-yl)-1,3-dihydro-2H-benzo[d]imidazol-2-one] was tested, and the pIC50 was greater than 5.30. Cc1ccncc1-c1ccc(O)c(F)c1 [Compound 11, 2-fluoro-4-(4-methylpyridin-3-yl)phenol] was tested, and the pIC50 was less than 4.52. Compound Cc1ccncc1-c1ccc(O)cc1 [Compound 9, 4-(4-methylpyridin-3-yl)phenol] has a pIC50 greater than 5.30. Cc1ccncc1-c1cc2cc[nH]c2cc1F [Compound 34, 6-fluoro-5-(4-methylpyridin-3-yl)-1H-indole] was tested, and the pIC50 was less than 4.52.
